# Measured values from US9994578B2, “Benzodiazepine derivative and use thereof” (JIANGSU NHWALUOKANG PHARMCEUTICAL RESEARCH AND DEVELOPMENT …, priority 2014, dated 2018).
# Marks after values point to notes of the source that are not given here.
# How the values were obtained:
# [1] = Solubility in normal saline; type: physicochemical; conditions: saline or isotonic
# Protocol: The structures of the compounds C1-C5 and their solubilities in normal saline are as follows:
# Furthermore, other derivatives were also prepared. The structures and solubilities in normal saline are as follows: […]
# Kunming mice = assay: Anesthetic efficacy on mice (disappearance of righting reflex); type: in vivo; conditions: for Number of anesthetized animals / Behavior of animals: 9 mg/kg caudal vein injection, 0.9 mg/ml; for Number of anesthetized animals: 6 per group, disappearance of righting reflex
# Protocol: Kunming mice (SPF, Chongqing Medical University Animal Center) were randomly grouped with 6 animals in each group. The dosage as 9 mg/kg was administered via caudal vein injection for 3-5 seconds. The performances during animal experiments were recorded with the standard of disappearance of righting reflex.
# [2] = Oil/water partition coefficient (n-octanol/water); type: physicochemical; conditions: 1 mg/ml aqueous solution, room temperature
# Protocol: Remirnazolam and compound C2 were formulated into aqueous solution of 1 mg/ml respectively, 10 ml of prepared solution were measured and n-octanol with equal volume was added.
# [3] = Rat plasma decomposition in vitro; type: in vitro ADME; conditions: 37° C.
# Protocol: Remimazolam and compound C2 were formulated in normal saline of respectively. 0.1 ml of the solution was measured and added into plasma of rat (living Kunming species, SPF, Animal center of Chongqing Medical University). Mixing was performed sufficiently, and the mixture was placed in constant temperature water bath of 37° C. 2 ml of acetonitrile was added immediately after taking samples at different time-points. Shaking and centrifugation at 1000 rpm/min were conducted to obtain supernatant and HPLC measurement was performed.
# [4] = Anesthetic ED50, LD50 and TI index of rats (sequential method); type: in vivo; conditions: rat, in vivo, intravenous; male SD rats, caudal vein injection in 10 seconds, death
# Protocol: (§1) Anesthetic ED50 (median effective dose) value and LD50 (half lethal dose) value of rats are determined by sequential method. Healthy male SD rats (SPF, Qinglongshan animal breeding center of Nanjing), n-10˜20, were administrated via caudal vein injection and injection was completed in 10 seconds at a constant speed. The rough dosage that cause anesthesia (or death) of animal was found by preliminary test before experiment and used as middle dosage for the formal experiment. The spacing of each group was set as 0.8, and 2-3 dose-groups were set up and down, respectively. During the formal experiment, administration began from the group of middle dosage. When the animal was anaesthetized (or dead), administration was reduced by a dose unit; if the animal was not anaesthetized (or death), administration was increased by a dose unit until 3-4 reversal were found. The disappearance of righting reflex or death was used as judgment index, respectively. The ot425 software was used to calculate LD50 and ED50. Treatment index (TI index) was calculated by LD50 and ED50 value=LD50/ED50.
# SD rats = assay: as above; type: in vivo; conditions: for ED50: Rattus norvegicus, male SD rats, caudal vein injection in 10 seconds, disappearance of righting reflex; for TI index: rats, LD50/ED50
# Protocol: as §1
# Kunming rats = assay: Anesthetic induction time and waking up time of rats via intravenous bolus; type: in vivo; conditions: for Number of anesthetic animals: 2*ED50 caudal vein injection in 10 seconds, 10 per group; for Induction time: 2*ED50 i.v. bolus, time to disappearance of righting reflex
# Protocol: (§2) Kunming rats (SPF, Qinglongshan animal breeding center of Nanjing), half male and half female, were divided into groups with 10 animals in each group. The dosage of administration was 2*ED50 (ED50 value was detected in Example 12) and caudal vein injection was done at a constant speed in 10 seconds. The time for the disappearance of right reflex (latent period) and recovery time (duration period) of rats were recorded.
# rats = assay: as above; type: in vivo; conditions: 2*ED50 i.v. bolus, recovery time
# Protocol: as §2
# [5] = system: New Zealand white rabbits; assay: Rabbits anesthetic ED50 (sequential method); type: in vivo; conditions: Oryctolagus cuniculus, ear vein injection in 30 seconds, disappearance of righting reflex
# Protocol: Anesthetic ED50 values of rabbits are determined by sequential method. Healthy New Zealand white rabbits (SPF, Peizhou rabbit breeding center) were administrated via ear vein injection at a constant speed in 30 seconds. The rough dosage that cause anesthesia (or death) of animal were found by preliminary test before experiment and used as middle dosage for the formal experiment. The spacing of each group was set as 0.8 and 2-3 dose-groups were set up and down, respectively. The disappearance of righting reflex or death was used as judgment index of efficacy or toxicity, respectively. During the formal experiment, administration began from the group of middle dosage. When the animal was anesthetized (or dead), administration was reduced by a dose unit; if the animal was not anesthetized (or dead), administration was increased by a dose unit, until 3-4 reversal occurred. The disappearance of righting reflex or death was used as judgment index, respectively. The ot425 software was used to calculate ED50.
# [6] = system: New Zealand white rabbits; assay: Anesthetic induction time and waking up time of rabbits via intravenous bolus; type: in vivo; conditions: for Number of anesthetic animals: 1.0 mg/kg (2*ED50) ear vein injection in 30 seconds, 8 per group; for Duration / Induction time: 1.0 mg/kg (2*ED50) i.v. bolus
# Protocol: New Zealand white rabbits (SPF, Peizhou rabbit breeding center), half male and half female, were divided into groups with 8 animals in each group. The dosage of administration was 2*ED50 (ED50 value was detected in Example 14), and was administrated via ear vein injection at a constant speed in 30 seconds. The time (latent period) for the disappearance of right reflex and recovery time (duration period) of rabbits were recorded.
# [7] = system: New Zealand white rabbits; assay: Long-term venous infusion experiment on rabbits; type: in vivo; conditions: inducing dose 1.5 mg/kg (3*ED50), maintaining dose 22.5 mg/kg/h
# Protocol: New Zealand white rabbits (SPF, Peizhou rabbit breeding center), half male and half female, were divided into groups with 10 animals in each group. The dosage of each administration was 3*ED50 (ED50 value was detected in Example 14) as inducing dosage when intravenous injection was performed on rabbits. An appropriate dosage was infused as maintaining dosage for 30 min. […] The effects of long-term infusion of medicine of the two groups on rabbits (breathe, salivation, excrement) were observed and the time from ceasing administration to the recovery of righting reflex of rabbits were recorded.
# Macaca fascicularis = assay: Anesthetic pharmacodynamic experiment on Macaca fascicularis; type: in vivo; conditions: for Number of anesthetic animal/number of animal: disappearance of eyelid response
# Protocol: Compound C2 showing significant efficacy on other animal, was administrated to Macaca fascicularis for anesthetic pharmacodynamic experiment. The rough anesthetic dosage of compound C2 for Macaca fascicularis was investigated by preliminary test before experiment and different dosages were set for the formal experiment. Intravenous administration was performed in 60±10s. The disappearance of eyelid response of animal was used to judge whether anesthesia occurred on the animal. The behaviors of animals were observed during duration period and the anesthetic effects of compound C2 on Macaca fascicularis were evaluated.
# [8] = system: GABAA receptor benzodiazepines site; assay: In vitro affinity with GABAA receptor benzodiazepines site (3H-flunitrazepam displacement, brain membrane); type: binding, SD rat
# [9] = Hepatocyte metabolism experiment of CNS 7056 in vitro with formic acid; type: in vitro ADME; conditions: formic acid added in liver cell nutrient solution at 0.1% (v/v)
# Source text: Therefore, after a long-term administration of remimazolam during ICU sedation process by ONO PHARMACEUTICAL CO., LTD, the metabolite methanol is easily oxidized to formic acid. Formic acid easily accumulates in vivo and inhibits hCES1 such that remimazolam is metabolized slowly, which may cause high serum concentration in some patients.
# ICU patients = conditions: of 49 ICU patients, sedation; cited from earlier work
structure (smiles),measurement,setting,value
"CCOC(=O)CC[C@@H]1N=C(c2ccccn2)c2cc(Br)ccc2-n2c(C)cnc21 [C2, remimazolam acid ethyl ester p-toluenesulfonate]",solubility,[1],15 mg/mL
same,Number of anesthetized animals,Kunming mice,6/6
same,logP at 24 h,[2],3.28
same,Rat Plasma decomposition in vitro (%),[3]; 10 s,61.4%
same,Rat Plasma decomposition in vitro (%),[3]; 30 s,99.0%
same,Rat Plasma decomposition in vitro (%),[3]; 1 min,100%
same,LD50,[4],30.7 mg/kg
same,ED50,SD rats,3.2 mg/kg
same,TI index,SD rats,9.6
same,Number of anesthetic animals,Kunming rats,10/10
same,Induction time,Kunming rats,18.8 ± 3.0 s
same,Duration,rats,267.4 ± 105 s
same,ED50,[5],0.512 mg/kg
same,Number of anesthetic animals,[6],8/8
same,Duration,[6],13.19 ± 3.52 min
same,Induction time,[6],1.80 ± 0.78 min
same,Waking up time after intravenous drip for 30 min,[7],45.20 ± 12.59 min
same,Duration,Macaca fascicularis; 3 mg/kg i.v.,28.67 ± 5.92 min
same,Induction time,Macaca fascicularis; 3 mg/kg i.v.,2.00 ± 0.63 s
same,Number of anesthetic animal/number of animal,Macaca fascicularis; 3 mg/kg i.v.,3/3
same,Duration,Macaca fascicularis; 4 mg/kg i.v.,31.67 ± 6.86 min
same,Induction time,Macaca fascicularis; 4 mg/kg i.v.,1.74 ± 0.43 s
same,Number of anesthetic animal/number of animal,Macaca fascicularis; 4 mg/kg i.v.,3/3
same,Duration,Macaca fascicularis; 5 mg/kg i.v.,36.21 ± 4.78 min
same,Induction time,Macaca fascicularis; 5 mg/kg i.v.,1.48 ± 0.54 s
same,Number of anesthetic animal/number of animal,Macaca fascicularis; 5 mg/kg i.v.,3/3
"CCOC(=O)CC[C@@H]1N=C(c2ccccn2)c2cc(Br)ccc2-n2c(C)cnc21.O=S(=O)(O)c1ccccc1 [C3, remimazolam acid ethyl ester benzenesulfonate]",solubility,[1],15 mg/mL
"CCOC(=O)CC[C@@H]1N=C(c2ccccn2)c2cc(Br)ccc2-n2c(C)cnc21.CS(=O)(=O)O [C4, remimazolam acid ethyl ester methanesulfonate]",solubility,[1],16 mg/mL
"CCOC(=O)CC[C@@H]1N=C(c2ccccn2)c2cc(Br)ccc2-n2c(C)cnc21.CCS(=O)(=O)O [C5, remimazolam acid ethyl ester ethanesulfonate]",solubility,[1],16 mg/mL
"Cc1ccc(S(=O)(=O)O)cc1.Cc1cnc2n1-c1ccc(Br)cc1C(c1ccccn1)=N[C@H]2CCC(=O)OC(C)C [C6, remimazolam acid isopropyl ester p-toluenesulfonate]",solubility,[1],8 mg/mL
same,Number of anesthetized animals,Kunming mice,6/6
same,anesthetic effect on the mice,Kunming mice; 9 mg/kg i.v.,has anesthetic effect on the mice
same,toxicity in mice,Kunming mice; 9 mg/kg i.v.,shows some toxicity
"CCCOC(=O)CC[C@@H]1N=C(c2ccccn2)c2cc(Br)ccc2-n2c(C)cnc21.Cc1ccc(S(=O)(=O)O)cc1 [C7, remimazolam acid n-propyl ester p-toluenesulfonate]",solubility,[1],8 mg/mL
same,Number of anesthetized animals,Kunming mice,0/6
"Cc1ccc(S(=O)(=O)O)cc1.Cc1cnc2n1-c1ccc(Br)cc1C(c1ccccn1)=N[C@H]2CCC(=O)OCCC(C)C [C8, remimazolam acid isopentyl ester p-toluenesulfonate]",solubility,[1],6 mg/mL
same,Behavior of animals,Kunming mice,Non-effect
same,Number of anesthetized animals,Kunming mice,0/6
"Cc1ccc(S(=O)(=O)O)cc1.Cc1cnc2n1-c1ccc(Br)cc1C(c1ccccn1)=N[C@H]2CCC(=O)OC1CCCCC1 [C9, remimazolam acid cyclohexyl ester p-toluenesulfonate]",solubility,[1],5 mg/mL
same,Behavior of animals,Kunming mice,Non-effect
same,Number of anesthetized animals,Kunming mice,0/6
"COC(=O)CC[C@@H]1N=C(c2ccccn2)c2cc(Br)ccc2-n2c(C)cnc21 [remimazolam, reference compound]",Number of anesthetized animals,Kunming mice,6/6
same,Inhibitory rate %,"[8]; 1.0 × 10^−5M test compound, 1 nM 3H-flunitrazepam",99.7* %
same,Inhibitory rate %,[8]; 1.0 × 10^−6M,85.5%
same,Inhibitory rate %,[8]; 1.0 × 10^−7M,47.0%
same,Inhibitory rate %,[8]; 1.0 × 10^−8M,15.4%
same,Inhibitory rate %,[8]; 1.0 × 10^−9M,6.8%
same,Inhibitory rate %,[8]; 1.0 × 10^−10M,23.0%
same,IC50,[8]; calculated by logit method,15.8 nM
same,logP at 24 h,[2],2.62
same,Rat Plasma decomposition in vitro (%),[3]; 10 s,53.7%
same,Rat Plasma decomposition in vitro (%),[3]; 30 s,96.7%
same,Rat Plasma decomposition in vitro (%),[3]; 1 min,100%
same,LD50,[4],61.4 mg/kg
same,ED50,SD rats,5 mg/kg
same,TI index,SD rats,12.3
same,Number of anesthetic animals,Kunming rats,10/10
same,Induction time,Kunming rats,52.1 ± 4.7 s
same,Duration,rats,242.2 ± 68 s
same,ED50,[5],0.512 mg/kg
same,Number of anesthetic animals,[6],8/8
same,Duration,[6],10.25 ± 2.72 min
same,Induction time,[6],4.30 ± 2.38 min
same,Waking up time after intravenous drip for 30 min,[7],33.91 ± 10.28 min
same,Duration,Macaca fascicularis; 3 mg/kg i.v.,23.33 ± 6.71 min
same,Induction time,Macaca fascicularis; 3 mg/kg i.v.,2.17 ± 0.41 s
same,Number of anesthetic animal/number of animal,Macaca fascicularis; 3 mg/kg i.v.,3/3
same,metabolism of CNS 7056 in hepatocytes,[9],totally inhibited
same,patients with higher serum concentration of remimazolam,ICU patients,Five
same,patients with prolonged waking up time,ICU patients,five
